Laboratory results: patent publication US8268990B2, “Compounds” (AstraZeneca AB, priority 2007, dated 2012)

target: T1, Recombinant human TLR7 (Homo sapiens, UniProt Q9NYK1); experiment: Human TLR7 Assay (SEAP reporter); assay type: cell-based; details: HEK293 cell line stably expressing human TLR7 and pNiFty2-SEAP reporter; SEAP induction after overnight incubation at 37° C., 0.1% (v/v) DMSO;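 note: SEAP driven by an NFkB-responsive composite promoter, pEC50 read at half of each compound's own maximal SEAP induction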
T1 construct: expressed in transfected cells; host or cells: HEK293 cell line stably expressing the pNiFty2-SEAP reporter plasmid; TLR7 in vector pUNO, blasticidin selection
T1 sequence (Q9NYK1 27-1049): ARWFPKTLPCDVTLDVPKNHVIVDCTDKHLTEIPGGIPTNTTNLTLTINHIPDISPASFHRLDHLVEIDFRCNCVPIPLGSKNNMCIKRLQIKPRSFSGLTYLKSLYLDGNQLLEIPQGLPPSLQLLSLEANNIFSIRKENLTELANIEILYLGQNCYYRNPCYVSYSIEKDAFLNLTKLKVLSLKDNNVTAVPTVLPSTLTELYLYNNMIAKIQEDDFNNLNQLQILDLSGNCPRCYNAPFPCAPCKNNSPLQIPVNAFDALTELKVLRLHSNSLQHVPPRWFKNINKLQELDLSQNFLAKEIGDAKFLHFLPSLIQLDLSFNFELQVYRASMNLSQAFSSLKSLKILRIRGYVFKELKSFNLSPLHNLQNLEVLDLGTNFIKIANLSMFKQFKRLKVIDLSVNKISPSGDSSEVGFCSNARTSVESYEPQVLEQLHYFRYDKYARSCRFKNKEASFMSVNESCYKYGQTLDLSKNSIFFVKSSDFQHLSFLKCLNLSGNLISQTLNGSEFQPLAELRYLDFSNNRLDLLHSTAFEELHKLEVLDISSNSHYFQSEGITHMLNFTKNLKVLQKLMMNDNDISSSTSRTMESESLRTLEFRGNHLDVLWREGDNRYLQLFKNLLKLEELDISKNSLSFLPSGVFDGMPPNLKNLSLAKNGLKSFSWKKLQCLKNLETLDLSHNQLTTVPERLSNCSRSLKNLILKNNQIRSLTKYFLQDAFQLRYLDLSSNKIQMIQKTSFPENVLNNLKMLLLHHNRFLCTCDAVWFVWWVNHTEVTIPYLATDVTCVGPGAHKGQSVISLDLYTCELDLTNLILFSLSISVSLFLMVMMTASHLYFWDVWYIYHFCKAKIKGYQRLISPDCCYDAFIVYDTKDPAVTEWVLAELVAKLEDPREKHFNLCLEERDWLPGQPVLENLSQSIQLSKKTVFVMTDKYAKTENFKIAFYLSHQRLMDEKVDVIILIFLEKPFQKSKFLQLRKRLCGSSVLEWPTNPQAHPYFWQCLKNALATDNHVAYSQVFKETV
From the text: Recombinant human TLR7 was stably expressed in a HEK293 cell line already stably expressing the pNiFty2-SEAP reporter plasmid; integration of the reporter gene was maintained by selection with the antibiotic zeocin. The most common variant sequence of human TLR7 (represented by the EMBL sequence AF240467) was cloned into the mammalian cell expression vector pUNO and transfected into this reporter cell-line. Transfectants with stable expression were selected using the antibiotic blasticidin. In this reporter cell-line, expression of secreted alkaline phosphatase (SEAP) is controlled by an NFkB/ELAM-1 composite promoter comprising five NFkB sites combined with the proximal ELAM-1 promoter. TLR signaling leads to the translocation of NFkB and activation of the promoter results in expression of the SEAP gene. TLR7-specific activation was assessed by determining the level of SEAP produced following overnight incubation of the cells at 37° C. with the standard compound in the presence of 0.1% (v/v) dimethylsulfoxide (DMSO). Concentration dependent induction of SEAP production by compounds was expressed as the concentration of compound which produced half of the maximal level of SEAP induction for that compound (pEC50).

SMILES	EC50 [nM]
CCCCCNc1nc(N)nc(C)c1Cc1ccc(CC(=O)OCCN2CCOCC2)cc1 [Example 35, 2-Morpholinoethyl 2-(4-((2-amino-4-methyl-6-(pentylamino)pyrimidin-5-yl)methyl)phenyl)acetate]	251
CCCCCNc1nc(N)nc(C)c1Cc1ccc(CC(=O)OCCN(C)C)cc1 [Example 36, 2-(Dimethylamino)ethyl 2-(4-((2-amino-4-methyl-6-(pentylamino)pyrimidin-5-yl)methyl)phenyl)acetate]	251
CCCCNc1nc(N)nc(C)c1Cc1ccc(CC(=O)OC)cc1 [Example 41, Methyl 2-(4-((2-amino-4-(butylamino)-6-methylpyrimidin-5-yl)methyl)phenyl)acetate]	1000
CCC[C@@H](CCO)Nc1nc(N)nc(C)c1Cc1cc(CC(=O)OC)ccc1F [Example 42, (S)-Methyl 2-(3-((2-amino-4-(1-hydroxyhexan-3-ylamino)-6-methylpyrimidin-5-yl)methyl)-4-fluorophenyl)acetate]	631
CCC[C@@H](CO)Nc1nc(N)nc(C)c1Cc1ccc(CC(=O)OC)cc1 [Example 43, (S)-Methyl 2-(4-((2-amino-4-(1-hydroxypentan-2-ylamino)-6-methylpyrimidin-5-yl)methyl)phenyl)acetate]	794
CCCC[C@@H](CO)Nc1nc(N)nc(C)c1Cc1ccc(CC(=O)OC)cc1 [Example 44, (S)-Methyl 2-(4-((2-amino-4-(1-hydroxyhexan-2-ylamino)-6-methylpyrimidin-5-yl)methyl)phenyl)acetate]	631
CCC[C@@H](CO)Nc1nc(N)nc(C)c1Cc1ccc(CC(=O)OC)cc1F [Example 47, (S)-Methyl 2-(4-((2-amino-4-(1-hydroxypentan-2-ylamino)-6-methylpyrimidin-5-yl)methyl)-3-fluorophenyl)acetate]	501
CCC[C@@H](CCO)Nc1nc(N)nc(C)c1Cc1ccc(CC(=O)OC)cc1 [Example 49, (S)-Methyl 2-(4-((2-amino-4-(1-hydroxyhexan-3-ylamino)-6-methylpyrimidin-5-yl)methyl)phenyl)acetate]	200
CCCC[C@@H](CCO)Nc1nc(N)nc(C)c1Cc1ccc(CC(=O)OC)cc1 [Example 50, (S)-Methyl 2-(4-((2-amino-4-(1-hydroxyheptan-3-ylamino)-6-methylpyrimidin-5-yl)methyl)phenyl)acetate]	158
CCCCCNc1nc(N)nc(C)c1CCCN(Cc1ccc(CC(=O)OC)cc1)C(=O)C1CCN(C)CC1 [Example 51, Methyl 2-(4-((N-(3-(2-amino-4-methyl-6-(pentylamino)pyrimidin-5-yl)propyl)-1-methylpiperidine-4-carboxamido)methyl)phenyl)acetate]	794
CCCCCNc1nc(N)nc(C)c1CCCN(Cc1ccc(CC(=O)OC)cc1)C(=O)CSC [Example 52, Methyl 2-(4-((N-(3-(2-amino-4-methyl-6-(pentylamino)pyrimidin-5-yl)propyl)-2-(methylthio)acetamido)methyl)phenyl)acetate]	631
CCCCCNc1nc(N)nc(C)c1Cc1ccc(CC(=O)OCCCN2CCN(C)CC2)cc1 [Example 56, 3-(4-Methylpiperazin-1-yl)propyl 2-(4-((2-amino-4-methyl-6-(pentylamino)pyrimidin-5-yl)methyl)phenyl)acetate]	251
CCCCCNc1nc(N)nc(C)c1Cc1ccc(CC(=O)OCC2CCN(C)CC2)cc1 [Example 60, (1-Methylpiperidin-4-yl)methyl 2-(4-((2-amino-4-methyl-6-(pentylamino)pyrimidin-5-yl)methyl)phenyl)acetate]	200
CCCCCNc1nc(N)nc(C)c1Cc1ccc(CC(=O)OCC2CCN(CCOC)CC2)cc1 [Example 62, (1-(2-Methoxyethyl)piperidin-4-yl)methyl 2-(4-((2-amino-4-methyl-6-(pentylamino)pyrimidin-5-yl)methyl)phenyl)acetate]	200
CCCCCNc1nc(N)nc(C)c1Cc1ccc(CC(=O)OCCCCN2CCN(C)CC2)cc1 [Example 63, 4-(4-Methylpiperazin-1-yl)butyl 2-(4-((2-amino-4-methyl-6-(pentylamino)pyrimidin-5-yl)methyl)phenyl)acetate]	158

Compounds with a lower EC50, results first:

EC50 [nM]	SMILES
6.31	CCCC[C@@H](CCO)Nc1nc(N)nc(C)c1Cc1ccc(CC(=O)OC)cc1OC [Example 31, (S)-Methyl 2-(4-((2-amino-4-(1-hydroxyheptan-3-ylamino)-6-methylpyrimidin-5-yl)methyl)-3-methoxyphenyl)acetate]
50.1	CCCC[C@@H](CO)Nc1nc(N)nc(C)c1Cc1ccc(CC(=O)OC)cc1OC [Example 32, (S)-Methyl 2-(4-((2-amino-4-(1-hydroxyhexan-2-ylamino)-6-methylpyrimidin-5-yl)methyl)-3-methoxyphenyl)acetate]
50.1	CCCC[C@@H](CCO)Nc1nc(N)nc(C)c1Cc1ccc(CC(=O)OC)cc1F [Example 33, (S)-Methyl 2-(4-((2-amino-4-(1-hydroxyheptan-3-ylamino)-6-methylpyrimidin-5-yl)methyl)-3-fluorophenyl)acetate]
126	CCCCCNc1nc(N)nc(C)c1Cc1ccc(CC(=O)OCCCN(C)C)cc1 [Example 37, 3-(Dimethylamino)propyl 2-(4-((2-amino-4-methyl-6-(pentylamino)pyrimidin-5-yl)methyl)phenyl)acetate]
126	CCCCCNc1nc(N)nc(C)c1Cc1ccc(CC(=O)OCCN2CCN(C)CC2)cc1 [Example 38, 2-(4-Methylpiperazin-1-yl)ethyl 2-(4-((2-amino-4-methyl-6-(pentylamino)pyrimidin-5-yl)methyl)phenyl)acetate]
100	CCCCCNc1nc(N)nc(C)c1Cc1cc(CC(=O)OC)ccc1O [Example 39, Methyl 2-(3-((2-amino-4-methyl-6-(pentylamino)pyrimidin-5-yl)methyl)-4-hydroxyphenyl)acetate]
126	CCCCCNc1nc(N)nc(C)c1Cc1ccc(OCC(=O)OC)cc1OC [Example 40, Methyl 2-(4-((2-amino-4-methyl-6-(pentylamino)pyrimidin-5-yl)methyl)-3-methoxyphenoxy)acetate]
50.1	CCC[C@@H](CCO)Nc1nc(N)nc(C)c1Cc1ccc(CC(=O)OC)cc1F [Example 45, (S)-Methyl 2-(4-((2-amino-4-(1-hydroxyhexan-3-ylamino)-6-methylpyrimidin-5-yl)methyl)-3-fluorophenyl)acetate]
2	CCC[C@@H](CCO)Nc1nc(N)nc(C)c1Cc1ccc(CC(=O)OC)cc1OC [Example 48, (S)-Methyl 2-(4-((2-amino-4-(1-hydroxyhexan-3-ylamino)-6-methylpyrimidin-5-yl)methyl)-3-methoxyphenyl)acetate]
39.8	CC[C@H](O)CNc1nc(N)nc(C)c1Cc1ccc(CC(=O)OC)cc1OC [Example 53, (S)-Methyl 2-(4-((2-amino-4-(2-hydroxybutylamino)-6-methylpyrimidin-5-yl)methyl)-3-methoxyphenyl)acetate]
79.4	CCCCCNc1nc(N)nc(C)c1Cc1cc(CC(=O)OC)ccc1OC [Example 54, Methyl 2-(3-((2-amino-4-methyl-6-(pentylamino)pyrimidin-5-yl)methyl)-4-methoxyphenyl)acetate]
126	CCCCCNc1nc(N)nc(C)c1Cc1ccc(CC(=O)OCC(C)(C)CN(C)C)cc1 [Example 55, 3-(Dimethylamino)-2,2-dimethylpropyl 2-(4-((2-amino-4-methyl-6-(pentylamino)pyrimidin-5-yl)methyl)phenyl)acetate]
126	CCCCCNc1nc(N)nc(C)c1Cc1ccc(CC(=O)OCCCCN(C)C)cc1 [Example 57, 4-(Dimethylamino)butyl 2-(4-((2-amino-4-methyl-6-(pentylamino)pyrimidin-5-yl)methyl)phenyl)acetate]
126	CCCCCNc1nc(N)nc(C)c1Cc1ccc(CC(=O)OCCCN2CCOCC2)cc1 [Example 58, 3-Morpholinopropyl 2-(4-((2-amino-4-methyl-6-(pentylamino)pyrimidin-5-yl)methyl)phenyl)acetate]
126	CCCCCNc1nc(N)nc(C)c1Cc1ccc(CC(=O)OC2CCN(C)CC2)cc1 [Example 59, 1-Methylpiperidin-4-yl 2-(4-((2-amino-4-methyl-6-(pentylamino)pyrimidin-5-yl)methyl)phenyl)acetate]
126	CCCCCNc1nc(N)nc(C)c1Cc1ccc(CC(=O)OCCCCN2CCCC2)cc1 [Example 61, 4-(Pyrrolidin-1-yl)butyl 2-(4-((2-amino-4-methyl-6-(pentylamino)pyrimidin-5-yl)methyl)phenyl)acetate]
